Results on two molecules are retold here after patent US11246898B2 (priority 2017, dated 2022).

Read-outs that look alike come from different tables or passages of the source.

Data set [1] concerns Ebola virus/Zaire. The data set is described as follows: microbe, parasite or virus in culture. Conditions: Zaire ebolavirus. Type of data set: cell-based.
The next data set in a line: in vitro. Conditions: African green monkey.
Data set [2] has as its system Ebola virus/Zaire. The data set is classed as cell-based.

On to `NC(=O)c1nc(F)c[nH]c1=O` [Favipiravir], for which the EC50 – broadly, the concentration giving half of the maximal effect – in the data set with Ebola virus/Zaire [1] is 96 µM. Besides, the CC50 in the data set “in vitro” was greater than 1 mM.

Allophycocyanin showed a CC50 in the data set with CellTiter96 (MTS) cells greater than 400 µg/mL. In the data set on Ebola virus/Zaire [2], the EC50 stood at 1.77 µg/mL and the EC90 (usually the point of the concentration-response curve where the effect stands at 90%) was greater than 400 µg/mL.
